Measured values from PubChem BioAssay AID1259407 (Chemical Carcinogenesis Research Information System (CCRIS), 2018).
Active and inactive are the calls of the source. The rule behind the calls is not given here.

Tested on: CCRIS mutagenicity, Ames/micronucleus/aberration tests
Experiment: CCRIS mutagenicity studies

ClCC(Cl)CCl
mutagenic call (End Point: IN VITRO CHROMOSOMAL ABERRATIONS, Test System: CHL CELLS, Metabolic Activation: NONE): inactive; negative
mutagenic call (End Point: IN VITRO CHROMOSOMAL ABERRATIONS, Test System: CHL CELLS, Metabolic Activation: RAT, LIVER, S-9, SODIUM PHENOBARBITAL AND 5,6-BENZOFLAVONE): active; positive (structural changes)
mutagenic call (Test System: AMES SALMONELLA TYPHIMURIUM, Strain/Indicator: TA97, Metabolic Activation: HAMSTER, LIVER, S-9, AROCLOR 1254 (10%), Method: PREINCUBATION): active; positive
mutagenic call (Test System: AMES SALMONELLA TYPHIMURIUM, Strain/Indicator: TA97, Metabolic Activation: NONE, Method: PREINCUBATION): inactive; negative
mutagenic call (Test System: AMES SALMONELLA TYPHIMURIUM, Strain/Indicator: TA97, Metabolic Activation: RAT, LIVER, S-9, AROCLOR 1254 (10%), Method: PREINCUBATION): active; positive
mutagenic call (Test System: AMES SALMONELLA TYPHIMURIUM, Strain/Indicator: TA98, Metabolic Activation: HAMSTER, LIVER, S-9, AROCLOR 1254 (10%), Method: PREINCUBATION): active; positive
mutagenic call (Test System: AMES SALMONELLA TYPHIMURIUM, Strain/Indicator: TA98, Metabolic Activation: HAMSTER, LIVER, S-9, AROCLOR 1254, Method: PREINCUBATION): inactive; negative
mutagenic call (Test System: AMES SALMONELLA TYPHIMURIUM, Strain/Indicator: TA98, Metabolic Activation: NONE, Method: PREINCUBATION): inactive; negative
mutagenic call (Test System: AMES SALMONELLA TYPHIMURIUM, Strain/Indicator: TA98, Metabolic Activation: RAT, LIVER, S-9, AROCLOR 1254, Method: PREINCUBATION): inactive; negative
mutagenic call (Test System: AMES SALMONELLA TYPHIMURIUM, Strain/Indicator: TA100, Metabolic Activation: HAMSTER, LIVER, S-9, AROCLOR 1254 (10%), Method: PREINCUBATION): active; positive
mutagenic call (Test System: AMES SALMONELLA TYPHIMURIUM, Strain/Indicator: TA100, Metabolic Activation: HAMSTER, LIVER, S-9, AROCLOR 1254, Method: PREINCUBATION): active; positive
mutagenic call (Test System: AMES SALMONELLA TYPHIMURIUM, Strain/Indicator: TA100, Metabolic Activation: NONE, Method: PREINCUBATION): inactive; negative
mutagenic call (Test System: AMES SALMONELLA TYPHIMURIUM, Strain/Indicator: TA100, Metabolic Activation: RAT, LIVER, MICROSOMES, PHENOBARBITAL, NADPH COFACTORS, Method: STANDARD PLATE): active; positive
mutagenic call (Test System: AMES SALMONELLA TYPHIMURIUM, Strain/Indicator: TA100, Metabolic Activation: RAT, LIVER, MICROSOMES, PHENOBARBITAL, Method: STANDARD PLATE): inactive; negative
mutagenic call (Test System: AMES SALMONELLA TYPHIMURIUM, Strain/Indicator: TA100, Metabolic Activation: RAT, LIVER, S-9, AROCLOR 1254 (10%), Method: PREINCUBATION): active; positive
mutagenic call (Test System: AMES SALMONELLA TYPHIMURIUM, Strain/Indicator: TA100, Metabolic Activation: RAT, LIVER, S-9, AROCLOR 1254, Method: PREINCUBATION): active; positive
mutagenic call (Test System: AMES SALMONELLA TYPHIMURIUM, Strain/Indicator: TA1535, Metabolic Activation: HAMSTER, LIVER, S-9, AROCLOR 1254 (10%), Method: PREINCUBATION): active; positive
mutagenic call (Test System: AMES SALMONELLA TYPHIMURIUM, Strain/Indicator: TA1535, Metabolic Activation: HAMSTER, LIVER, S-9, AROCLOR 1254, Method: PREINCUBATION): active; positive
mutagenic call (Test System: AMES SALMONELLA TYPHIMURIUM, Strain/Indicator: TA1535, Metabolic Activation: NONE, Method: PREINCUBATION): inactive; negative
mutagenic call (Test System: AMES SALMONELLA TYPHIMURIUM, Strain/Indicator: TA1535, Metabolic Activation: RAT, LIVER, S-9, AROCLOR 1254 (10%), Method: PREINCUBATION): active; positive
mutagenic call (Test System: AMES SALMONELLA TYPHIMURIUM, Strain/Indicator: TA1535, Metabolic Activation: RAT, LIVER, S-9, AROCLOR 1254, Method: PREINCUBATION): active; positive
mutagenic call (Test System: AMES SALMONELLA TYPHIMURIUM, Strain/Indicator: TA1537, Metabolic Activation: HAMSTER, LIVER, S-9, AROCLOR 1254 (10%), Method: PREINCUBATION): inactive; negative
mutagenic call (Test System: AMES SALMONELLA TYPHIMURIUM, Strain/Indicator: TA1537, Metabolic Activation: NONE, Method: PREINCUBATION): inactive; negative
mutagenic call (Test System: AMES SALMONELLA TYPHIMURIUM, Strain/Indicator: TA1537, Metabolic Activation: RAT, LIVER, S-9, AROCLOR 1254 (10%), Method: PREINCUBATION): inactive; negative
mutagenic call (Test System: AMES SALMONELLA TYPHIMURIUM, Strain/Indicator: TA1537, Metabolic Activation: RAT, LIVER, S-9, AROCLOR 1254, Method: PREINCUBATION): inactive; negative
mutagenic call (Test System: MOUSE LYMPHOMA, Strain/Indicator: L5178Y (TK+/TK-), Metabolic Activation: NONE, Method: SUSPENSION/PLATE): inactive; negative
mutagenic call (Test System: MOUSE LYMPHOMA, Strain/Indicator: L5178Y (TK+/TK-), Metabolic Activation: RAT, LIVER, S-9, AROCLOR 1254, Method: SUSPENSION/PLATE): active; positive

COC1OC1(C)C (centres undefined)
mutagenic call (Test System: AMES SALMONELLA TYPHIMURIUM, Strain/Indicator: TA100, Metabolic Activation: NONE, Method: STANDARD PLATE): active; positive
mutagenic call (Test System: AMES SALMONELLA TYPHIMURIUM, Strain/Indicator: TA1535, Metabolic Activation: NONE, Method: STANDARD PLATE): active; positive
